Read-outs that look alike come from different tables or passages of the source.
Tests used:
[1] = system: Proteus mirabilis strain BB2000; test: Proteus mirabilis biofilm formation in polystyrene wells, crystal violet staining; type: cell-based; conditions: 1 mM, M9 + glucose, 48 hours at 30° C., OD 595 nm
Experimental: To examine the effects of polyamines on biofilm formation, wells were initially treated with water (no treatment), 1 mM norspermidine, and 1 mM norspermine in 3 ml M9 + glucose before inoculation with P. mirabilis. Biofilms were permitted to grow for 48 hours at 30° C. without shaking The amount of biofilm formed was assessed with the standard assay of crystal violet staining (O'Toole G et al., Biofilm formation as microbial development, Annu Rev. Microbiol. (2000) 54:49-79); supernatant was removed from the wells and crystal violet (at […]) was then incubated in each well for 15 minutes at room temperature, followed by removal of the crystal violet from the wells and a subsequent washes with water. Any crystal violet attached the wells was next solubilized with 95% ethanol for 15 minutes at room temperature, and the subsequent optical density at 595 nm in each well was measured with a multiplate reader.

[2] = system: B. subtilis wild-type cells; test: Biofilm formation on solid biofilm medium, B. subtilis; type: cell-based, Bacillus subtilis; conditions: 1 μl of cells mixed with 1 μl (1 mM) polyamine
Experimental: B. subtilis wild-type cells were grown to a mid-logarithmic phase and 1 μl of cells was mixed with 1 μl (1 mM) of each polyamine. The mixture was plated on solid biofilm medium.
B. subtilis wild-type cells were grown to a mid-logarithmic phase and 1 μl of cells was either mixed with PBS (18C) or mixed with 1 μl (1 mM) of each polyamine (18D). The mixture was plated on solid biofilm medium. “3*” refers to 1,5,9-Triazacyclododecane.

[3] = system: B. subtilis exopolysaccharide mutant (ΔepsH; DS76) and TasA mutant (ΔtasA; FC55); test: Pellicle formation by matrix mutants in presence of norspermidine; type: cell-based, Bacillus subtilis; conditions: 25 μM norspermidine, 3-day-old cultures
Source text: It was observed that the residual pellicle (wispy fragments of floating material with some structure) produced in the presence of norspermidine resembled pellicles seen for a mutant blocked in exopolysaccharide production but not those seen (thin, featureless pellicles) for a mutant blocked in amyloid-fiber production. […] In other words, the effect of norspermidine was synergistic with that of a mutation blocking fiber formation but not with a mutant blocked in exopolysaccharide production (FIG. 4B).

[4] = system: exopolysaccharide and TasA of B. subtilis NCBI 3610; test: Fluorescence microscopy of matrix components (concanavalin A-Texas Red, TasA-mCherry), B. subtilis; type: cell-based, Bacillus subtilis
Source text: The cells were washed in PBS and stained for exopolysaccharide with a conjugate of concanavalin A with Texas-Red.
[…] Cells were washed in PBS, and visualized by fluorescence microscopy.
To investigate further, exopolysaccharide was visualized by fluorescence microscopy using a conjugate of the carbohydrate-binding protein concanavalin A with Texas Red (FIG. 5) (McSwain et al., 2005). As evidence of specificity, the conjugate decorated wild-type cells but not cells from a mutant (Aeps) blocked in exopolysaccharide production (FIG. 6A). Indeed, at an exposure at which concanavalin A staining with the wild type strain gave an extremely bright fluorescent signal, little or no signal could be detected for the Aeps mutant, except at long exposures and enhanced brightness (FIG. 6A). Next, we investigated the effects of norspermidine and spermidine. […] Therefore, the difference in the staining was evidently due to differential levels of cell-associated exopolysaccharide. […] Thus, while not being bound to any theory, it is believed that norspermidine disrupts the matrix and by targeting exopolysaccharide.

[5] = system: B. subtilis strain NCBI3610; test: Biofilm (pellicle) inhibition assay, B. subtilis in liquid biofilm-inducing medium; type: cell-based, Bacillus subtilis; conditions: for minimal effective concentration: Bacillus subtilis; for inhibition of pellicle formation at 50 μM: cells diluted 1:1000 in biofilm media, final concentration 50 μM
Experimental: Bacillus subtilis strains PY79, 3610 and their derivatives were grown in Luria-Bertani (LB) medium at 37° C. or MSgg medium (1) at 23° C. Solid media contained 1.5% Bacto agar. When appropriate, antibiotics were added at the following concentrations for growth of B. subtilis: 10 μg per ml of tetracycline, and 5 μg per ml of erythromycin, 500 μg per ml of spectinomycin.
B. subtilis strain NCBI3610 was grown at 22° C. in 12-well plates in liquid biofilm-inducing medium for 3 or 8 days. Conditioned medium (500 ml) from an 8-day-old culture was concentrated on the C-18 column and eluted step-wise with methanol. […]
Pellicle formation of strain NCBI 3610 was tested in the presence of the indicated concentrations of norspermidine (FIG. 1D) or spermidine (FIG. 1E).
To identify features of norspermidine important for its biofilm disassembly activity, we tested a library of polyamines in our biofilm inhibition assay (FIGS. 9A, 9B, 10 and Table 2).
The effect of polyamines on pellicle formation by B. subtilis was examined. B. subtilis wild-type cells were grown to a mid-logarithmic phase and diluted 1:1000 in biofilm media applied with each polyamine to the final concentration of 50 μM.
The effect of cyclic polyamines on biofilm formation by B. subtilis was examined. B. subtilis wild-type cells were grown to a mid-logarithmic phase and diluted 1:1000 in biofilm media (18A) or in a medium applied with cyclic compound 1,5,9-Triazacyclododecane to the final concentration of 50 μM (18B).

[6] = system: exopolysaccharide of E. coli cells; test: Fluorescence microscopy of exopolysaccharide staining, E. coli; type: cell-based, Escherichia coli
Source text: (§1) In testing E. coli, the biofilm-proficient strain MC4100 was selected because a major component of exopolysacchride is colanic acid (Danese et al., 2000; Price and Raivio, 2009).

[7] = system: exopolysaccharide of S. aureus cells; test: Fluorescence microscopy of exopolysaccharide staining, S. aureus; type: cell-based, Staphylococcus aureus
[8] = system: B. subtilis NCBI 3610 / strain FC5 (PepsA-lacZ); test: Growth and matrix operon expression in shaking MSgg medium; type: cell-based, Bacillus subtilis; conditions: 100 μM, MSgg medium with shaking
Experimental: Strain FC5 (carrying PepsA-lacZ) was grown in MSgg medium containing norspermidine (100 μM) with shaking or in untreated medium as control (NT).
NCBI 3610 was grown in MSgg medium applied with norspermidine (100 μM) with shaking or in untreated medium served as a control (NT). […] Therefore, whether norspermidine interacts directly with the exopolysaccharide was investigated. To attempt to detect such an interaction, dynamic light scattering was used. Dynamic scattering is a standard procedure for measuring the average radius of polymers in which a laser beam is transmitted through a sample containing polymers in solution (Berne, 1976; Orgad et al., 2011; Vinayahan et al., 2010).

[9] = system: E. coli strain MC4100; test: Submerged biofilm formation by E. coli, crystal violet staining; type: cell-based, Escherichia coli; conditions: compounds tested at 500 μM
Experimental: (§2) The compounds were tested at 500 μM. Biofilm formation was visualized by crystal violet staining of submerged biofilms.
(§3) Whether polyamines might prevent biofilm formation by other bacteria that produce an exopolysaccharide matrix was examined. […] The compounds were tested at 500 μM. Biofilm formation was visualized by crystal violet staining of submerged biofilms.
as §1

[10] = system: P. aeriginosa strain PA14; test: Biofilm formation by Pseudomonas on solid M63 medium; type: cell-based, Pseudomonas aeruginosa; conditions: 1 μl of cells mixed with 1 μl (10 mM) polyamine
Experimental: The effect of polyamines on biofilm formation by Pseudomonas was examined. P. aeriginosa strain PA14 were grown to a mid-logarithmic phase and 1 μl of cells was mixed with 1 μl (10 mM) of each polyamine. The mixture was plated on solid M63 medium.

[11] = system: S. aureus strain SCO1; test: Submerged biofilm formation by S. aureus, crystal violet staining; type: cell-based, Staphylococcus aureus; conditions: for inhibition of S. aureus biofilm formation: TSB with NaCl (3%) and Glucose (0.5%), norspermidine 10 μM, norspermine 100 μM; for inhibition of S. aureus submerged biofilm formation, compound screen: compounds tested at 500 μM
Experimental: as §2, §3
The medium was applied with norspermidine (10 μM), norspermine (100 μM) or spermine (500 μM). Planktonic cells were removerd (19A-D). Wells were washed once, and incubated with Crystal Violet (0.1%) for 15 mins. Wells were washed twice in DDW (19E-H).
The effect of certain polyamines combined with biofilm-inhibiting D-amino acids in Staphylococcus was examined. S. aureus strain SC-01 was grown to a mid-logarithmic phase and diluted 1:1000 into a 12 wells plate in a TSB medium applied with NaCl (3%) and Glucose (0.5%). The medium was applied with either norspermidine or D-tyrosine or both as indicated below each panel. Planktonic cells were removerd Wells were washed once, and incubated with Crystal Violet (0.1%) for 15 mins. Wells were washed twice in DDW.

[12] = system: B. subtilis pellicles; test: Disassembly of pre-formed pellicles, B. subtilis; type: cell-based, Bacillus subtilis; conditions: 250 μM applied at day 2, additional 24 hrs
Experimental: After incubation for the indicated times, pellicle material and the medium were separated and each brought to a volume of 3 ml. After mild sonication, the OD600 was determined for each sample. The % of disassembly represents the OD600 of the medium as a percent of the sum of the OD600 of the medium and the OD600 of the pellicle. […] Thus, D-amino acids and norspermidine act synergistically in preventing biofilm formation and triggering the disassembly of mature biofilms.
Whether polyamines could trigger disassembly of biofilms formed by B. subtilis was examined. B. subtilis wild-type cells grown in liquid biofilm medium. Cells were grown to mid-logarithmic phase and diluted 1:1000 in liquid biofilm media. At day 2, pre-formed pellicles were applied with either PBS (A) or norspermine (250 μM) (B). Pellicles were incubated for additional 24 hrs.

| SMILES | reduction of Proteus mirabilis biofilm formation [1] | inhibition of biofilm formation on solid biofilm medium [2] | effect on pellicle formation by amyloid fiber (TasA) mutant [3] | effect on residual pellicle of exopolysaccharide mutant [3] | pattern of concanavalin A-Texas Red staining of exopolysaccharide ([4]; norspermidine 25 μM, spermidine 1 mM) | effect on protein component of the matrix (TasA-mCherry) ([4]; norspermidine 50 μM) | minimal effective concentration ([5]; NCBI3610, read-out: MBIC- Minimal Biofilm Inhibitory Concentration) [µM] | concentration at which biofilm formation was inhibited ([5]; authentic norspermidine, pellicle formation NCBI3610) [µM] | inhibition of pellicle formation at 50 μM [5] | staining of exopolysaccharide, E. coli cells [6] | staining of exopolysaccharide, S. aureus cells [7] | cell growth [8] | inhibition of E. coli submerged biofilm formation [9] | inhibition of Pseudomonas biofilm formation [10] | inhibition of S. aureus biofilm formation [11] | inhibition of S. aureus submerged biofilm formation, compound screen [11] | disassembly of pre-formed pellicles [12] | minimal effective concentration ([5]; NCBI3610, B. subtilis biofilm inhibition assay, library of polyamines, read-out: MBIC- Minimal Biofilm Inhibitory Concentration) [µM] | biofilm-inhibitory activity against B. subtilis ([5]; library of polyamines, structure-activity) |
| --- | --- | --- | --- | --- | --- | --- | --- | --- | --- | --- | --- | --- | --- | --- | --- | --- | --- | --- | --- |
| NCCCNCCCN [Molecule 1, N-(3-aminopropyl)propane-1,3-diamine] | sufficient to reduce biofilm formation | inhibit biofilm formation | abolished pellicle formation | little effect on the residual pellicle | disrupted the relatively uniform, cell-associated pattern of staining | little or no effect on the protein component of the matrix | 25 to 50 | 25 | inhibit biofilm formation | markedly diminished staining of exopolysaccharide | markedly diminished staining of exopolysaccharide | not significantly inhibited | inhibited the formation of submerged biofilms | inhibit biofilm formation | inhibit biofilm formation | inhibited the formation of submerged biofilms |  |  |  |
| NCCCNCCCNCCCN [Molecule 2, N′-[3-(3-aminopropylamino)propyl]propane-1,3-diamine] | sufficient to reduce biofilm formation | inhibit biofilm formation |  |  |  |  |  |  | inhibit biofilm formation |  |  |  | inhibited the formation of submerged biofilms | inhibit biofilm formation | inhibit biofilm formation | inhibited the formation of submerged biofilms | triggered disassembly of the pellicles | 200 | exhibited biofilm-inhibitory activity |

Source: patent publication US20140056951A1, “METHODS AND COMPOSITIONS FOR TREATING BIOFILMS” (PRESIDENT AND FELLOWS OF HARVARD COLLEGE, priority 2011, published 2014)
